The results in this text go back to PMC5218480 (PLoS ONE, 2017).

This assay deals with MV-4-11 cells. In words: Gene expression microarray analysis (Affymetrix PrimeView) and GSEA. Type of assay: cell-based, human. On the set-up: RFU PODN (11730768_x_at) / Fold change /veh PODN (11730768_x_at) / RFU LINC00158 (11744669_a_at) / Fold change /veh LINC00158 (11744669_a_at) / RFU DUSP10 (11751237_a_at) / Fold change /veh DUSP10 (11751237_a_at) / RFU ID3 (11757404_x_at) / Fold change /veh ID3 (11757404_x_at) / RFU PLEKHG5 (11737974_s_at) / Fold change /veh PLEKHG5 (11737974_s_at) / RFU LRRC4B (11730491_at) / Fold change /veh LRRC4B (11730491_at) / RFU GIMAP4 (11747438_a_at) / Fold change /veh GIMAP4 (11747438_a_at) / RFU KRT8 (11758183_x_at) / Fold change /veh KRT8 (11758183_x_at) / RFU CNN1 (11734310_a_at) / Fold change /veh CNN1 (11734310_a_at) / RFU VPS37D (11726825_at) / Fold change /veh VPS37D (11726825_at) / RFU C10orf10 (11716522_x_at) / Fold change /veh C10orf10 (11716522_x_at) / RFU KIR2DL2 /// KIR2DL4 /// KIR2DL5A /// KIR2DL5B /// KIR2DS1 /// KIR2DS2 /// KIR2DS3 /// KIR2DS4 /// KIR3DL3 /// KIR3DL3 /// KIR3DS1 (11738374_at) / Fold change /veh KIR2DL2 /// KIR2DL4 /// KIR2DL5A /// KIR2DL5B /// KIR2DS1 /// KIR2DS2 /// KIR2DS3 /// KIR2DS4 /// KIR3DL3 /// KIR3DL3 /// KIR3DS1 (11738374_at) / RFU C1QL1 (11718748_at) / Fold change /veh C1QL1 (11718748_at) / RFU TMPRSS4 (11747572_a_at) / Fold change /veh TMPRSS4 (11747572_a_at) / RFU HAMP (11756126_x_at) / Fold change /veh HAMP (11756126_x_at) / RFU RNFT2 (11725882_a_at) / Fold change /veh RNFT2 (11725882_a_at) / RFU NR4A2 (11747474_a_at) / Fold change /veh NR4A2 (11747474_a_at) / RFU ABCC12 (11746883_a_at) / Fold change /veh ABCC12 (11746883_a_at) / RFU TMEM136 (11760407_x_at) / Fold change /veh TMEM136 (11760407_x_at) / RFU CLDN22 /// WWC2 (11732394_at) / Fold change /veh CLDN22 /// WWC2 (11732394_at) / RFU HLA-DPB1 (11760878_x_at) / Fold change /veh HLA-DPB1 (11760878_x_at) / RFU SPINT1 (11716480_a_at) / Fold change /veh SPINT1 (11716480_a_at) / RFU GAP43 (11754022_s_at) / Fold change /veh GAP43 (11754022_s_at) / RFU A4GNT (11735810_at) / Fold change /veh A4GNT (11735810_at) / RFU PRB3 (11715151_x_at) / Fold change /veh PRB3 (11715151_x_at) / RFU TUBB4B (11761932_at) / Fold change /veh TUBB4B (11761932_at) / RFU CAPN14 (11732068_a_at) / Fold change /veh CAPN14 (11732068_a_at) / RFU TMCC2 (11721928_a_at) / Fold change /veh TMCC2 (11721928_a_at) / RFU IRGQ (11745062_a_at) / Fold change /veh IRGQ (11745062_a_at) / RFU FAM174B (11720279_a_at) / Fold change /veh FAM174B (11720279_a_at) / RFU TMPRSS4 (11748680_a_at) / Fold change /veh TMPRSS4 (11748680_a_at) / RFU FAM212B (11763350_a_at) / Fold change /veh FAM212B (11763350_a_at) / RFU PLEKHG5 (11743358_a_at) / Fold change /veh PLEKHG5 (11743358_a_at) / RFU ZSCAN30 (11745921_a_at) / Fold change /veh ZSCAN30 (11745921_a_at) / RFU CMKLR1 (11741424_a_at) / Fold change /veh CMKLR1 (11741424_a_at) / RFU LOC101060620 /// MAPK8IP1 (11723275_at) / Fold change /veh LOC101060620 /// MAPK8IP1 (11723275_at) / RFU SPTSSB (11747773_x_at) / Fold change /veh SPTSSB (11747773_x_at) / RFU PRSS12 (11739890_at) / Fold change /veh PRSS12 (11739890_at) / RFU BIN1 (11741810_x_at) / Fold change /veh BIN1 (11741810_x_at) / RFU WNT11 (11732464_a_at) / Fold change /veh WNT11 (11732464_a_at) / RFU C10orf10 (11716521_a_at) / Fold change /veh C10orf10 (11716521_a_at) / RFU C5orf56 (11738089_at) / Fold change /veh C5orf56 (11738089_at) / RFU CYB561 (11721691_x_at) / Fold change /veh CYB561 (11721691_x_at) / RFU ANKRD19P (11752326_a_at) / Fold change /veh ANKRD19P (11752326_a_at) / RFU OR2T12 /// OR2T33 /// OR2T8 (11738714_s_at) / Fold change /veh OR2T12 /// OR2T33 /// OR2T8 (11738714_s_at) / RFU VCAN (11748164_a_at) / Fold change /veh VCAN (11748164_a_at) / RFU JSRP1 (11732532_at) / Fold change /veh JSRP1 (11732532_at) / RFU KRTAP10-11 (11738290_x_at) / Fold change /veh KRTAP10-11 (11738290_x_at) / RFU MYO3A (11730013_a_at) / Fold change /veh MYO3A (11730013_a_at) / RFU EBF3 (11725865_a_at) / Fold change /veh EBF3 (11725865_a_at) / RFU CAMK2N1 (11719241_x_at) / Fold change /veh CAMK2N1 (11719241_x_at) / RFU C5orf56 (11738088_a_at) / Fold change /veh C5orf56 (11738088_a_at) / RFU OLFML3 (11715873_a_at) / Fold change /veh OLFML3 (11715873_a_at) / RFU LOC100653217 /// NTM (11731650_a_at) / Fold change /veh LOC100653217 /// NTM (11731650_a_at) / RFU MAPK11 (11762145_a_at) / Fold change /veh MAPK11 (11762145_a_at) / RFU FIZ1 (11724087_x_at) / Fold change /veh FIZ1 (11724087_x_at) / RFU OASL (11726364_x_at) / Fold change /veh OASL (11726364_x_at) / RFU SOX15 (11748057_x_at) / Fold change /veh SOX15 (11748057_x_at) / RFU CD79A (11719716_a_at) / Fold change /veh CD79A (11719716_a_at) / RFU HIST1H1D (11736915_at) / Fold change /veh HIST1H1D (11736915_at) / RFU CASKIN2 (11723855_a_at) / Fold change /veh CASKIN2 (11723855_a_at) / RFU LOC730098 (11760151_x_at) / Fold change /veh LOC730098 (11760151_x_at) / RFU OR4N2 (11742367_at) / Fold change /veh OR4N2 (11742367_at) / RFU PRRT2 (11749266_a_at) / Fold change /veh PRRT2 (11749266_a_at) / RFU SNX32 (11753110_a_at) / Fold change /veh SNX32 (11753110_a_at) / RFU CDHR5 (11726645_a_at) / Fold change /veh CDHR5 (11726645_a_at) / RFU RCAN1 (11760418_a_at) / Fold change /veh RCAN1 (11760418_a_at) / RFU FAM167A (11723789_a_at) / Fold change /veh FAM167A (11723789_a_at) / RFU FAM26E (11764081_at) / Fold change /veh FAM26E (11764081_at) / RFU ISYNA1 (11749810_s_at) / Fold change /veh ISYNA1 (11749810_s_at) / RFU ACY1 (11761880_at) / Fold change /veh ACY1 (11761880_at) / RFU 11764098_at / Fold change /veh 11764098_at / RFU SAMD14 (11745864_x_at) / Fold change /veh SAMD14 (11745864_x_at) / RFU NPB (11741838_a_at) / Fold change /veh NPB (11741838_a_at) / RFU TMPRSS6 (11731388_a_at) / Fold change /veh TMPRSS6 (11731388_a_at) / RFU KRTAP10-2 (11738614_at) / Fold change /veh KRTAP10-2 (11738614_at) / RFU ARHGAP8 /// PRR5-ARHGAP8 (11727945_x_at) / Fold change /veh ARHGAP8 /// PRR5-ARHGAP8 (11727945_x_at) / RFU KRTAP5-7 /// NADSYN1 (11734609_at) / Fold change /veh KRTAP5-7 /// NADSYN1 (11734609_at) / RFU RASL12 (11751679_a_at) / Fold change /veh RASL12 (11751679_a_at) / RFU CDKN2B (11736163_a_at) / Fold change /veh CDKN2B (11736163_a_at) / RFU PRF1 (11729649_at) / Fold change /veh PRF1 (11729649_at) / RFU, ZNF638 /// ZNF638-IT1 / Fold change vs veh, ZNF638 /// ZNF638-IT1 / RFU, PANK3 / Fold change vs veh, PANK3 / RFU, SH3YL1 / Fold change vs veh, SH3YL1 / RFU, ZEB2 / Fold change vs veh, ZEB2 / RFU, NRIP1 / Fold change vs veh, NRIP1 / RFU, PTTG1IP / Fold change vs veh, PTTG1IP / RFU, CAPN2 / Fold change vs veh, CAPN2 / RFU, MED14 / Fold change vs veh, MED14 / RFU, SNORA58 / Fold change vs veh, SNORA58 / RFU, C1orf63 / Fold change vs veh, C1orf63 / RFU, LRRFIP1 / Fold change vs veh, LRRFIP1 / RFU, NDUFAF7 / Fold change vs veh, NDUFAF7 / RFU, SLC12A2 / Fold change vs veh, SLC12A2 / RFU, IBTK / Fold change vs veh, IBTK / RFU, ESF1 / Fold change vs veh, ESF1 / Fold change vs veh, TMEM50B / RFU, TAOK1 / Fold change vs veh, TAOK1 / RFU, ACBD3 / Fold change vs veh, ACBD3 / RFU, TMA16 / Fold change vs veh, TMA16 / RFU, RWDD3 / Fold change vs veh, RWDD3 / RFU, BCAT1 / Fold change vs veh, BCAT1 / RFU, EDEM3 / Fold change vs veh, EDEM3 / RFU, TMEM33 / Fold change vs veh, TMEM33 / RFU, WDR75 / Fold change vs veh, WDR75 / RFU, AHCTF1 / Fold change vs veh, AHCTF1 / RFU, TFRC / Fold change vs veh, TFRC / RFU, ZDHHC17 / Fold change vs veh, ZDHHC17 / RFU, NOM1 / Fold change vs veh, NOM1 / RFU, ARL8B / Fold change vs veh, ARL8B / RFU, ZBTB11 / Fold change vs veh, ZBTB11 / RFU, TAMM41 / Fold change vs veh, TAMM41 / RFU, KIAA1704 /// LOC100996395 / Fold change vs veh, KIAA1704 /// LOC100996395 / RFU, ING1 / Fold change vs veh, ING1 / RFU, TRMT61B / Fold change vs veh, TRMT61B / RFU, FUBP3 / Fold change vs veh, FUBP3 / RFU, TP53 / Fold change vs veh, TP53 / RFU, TNKS2 / Fold change vs veh, TNKS2 / RFU, ZFP14 / Fold change vs veh, ZFP14 / RFU, ACTR2 / Fold change vs veh, ACTR2 / RFU, PPP3R1 / Fold change vs veh, PPP3R1 / RFU, PIK3R1 / Fold change vs veh, PIK3R1 / RFU, HNRNPA1 / Fold change vs veh, HNRNPA1 / RFU, RNF170 / Fold change vs veh, RNF170 / RFU, ZNF28 / Fold change vs veh, ZNF28 / RFU, RNGTT / Fold change vs veh, RNGTT / RFU, OGT / Fold change vs veh, OGT / RFU, BRD1 / Fold change vs veh, BRD1 / RFU, MARS / Fold change vs veh, MARS / RFU, ZNF655 / Fold change vs veh, ZNF655 / RFU, FAHD1 / Fold change vs veh, FAHD1 / RFU, BDP1 / Fold change vs veh, BDP1 / RFU, LRRCC1 / Fold change vs veh, LRRCC1 / RFU, ARID1A / Fold change vs veh, ARID1A / RFU, ZNF146 / Fold change vs veh, ZNF146 / RFU, ZNF330 / Fold change vs veh, ZNF330 / RFU, GPN3 / Fold change vs veh, GPN3 / RFU, C9orf123 / Fold change vs veh, C9orf123 / RFU, N4BP2L2 / Fold change vs veh, N4BP2L2 / RFU, ARFIP1 / Fold change vs veh, ARFIP1 / RFU, FAM179B / Fold change vs veh, FAM179B / RFU, BCL10 / Fold change vs veh, BCL10 / RFU, UHRF1BP1L / Fold change vs veh, UHRF1BP1L / RFU, BET1 / Fold change vs veh, BET1 / RFU, CNOT2 / Fold change vs veh, CNOT2 / RFU, ZNF268 / Fold change vs veh, ZNF268 / Fold change vs veh, ZNF507 / RFU, DGCR2 / Fold change vs veh, DGCR2 / RFU, WDSUB1 / Fold change vs veh, WDSUB1 / Fold change vs veh, HSP90B1 /// MIR3652 / RFU, ADSS / Fold change vs veh, ADSS / RFU, GK / Fold change vs veh, GK / RFU, ZNF148 / Fold change vs veh, ZNF148 / RFU, TAF9 / Fold change vs veh, TAF9 / RFU, SLC1A5 / Fold change vs veh, SLC1A5 / RFU, SLMO2 / Fold change vs veh, SLMO2 / RFU, ABCC4 / Fold change vs veh, ABCC4 / RFU, LOC101060439 /// RAP1B / Fold change vs veh, LOC101060439 /// RAP1B / RFU, RFX7 / Fold change vs veh, RFX7 / RFU, GTPBP10 / Fold change vs veh, GTPBP10 / RFU, CNEP1R1 / Fold change vs veh, CNEP1R1 / RFU, BIVM-ERCC5 /// ERCC5 / Fold change vs veh, BIVM-ERCC5 /// ERCC5 / RFU, ILF3 / Fold change vs veh, ILF3 / RFU 11762660_at / Fold change /veh 11762660_at / RFU VCAN (11757783_s_at) / Fold change /veh VCAN (11757783_s_at) / RFU DDX43 (11728927_at) / Fold change /veh DDX43 (11728927_at) / RFU KRT8 (11758188_x_at) / Fold change /veh KRT8 (11758188_x_at) / RFU NKD1 (11759106_at) / Fold change /veh NKD1 (11759106_at) / RFU SRD5A1 (11742802_a_at) / Fold change /veh SRD5A1 (11742802_a_at) / RFU TPSAB1 /// TPSB2 (11721975_s_at) / Fold change /veh TPSAB1 /// TPSB2 (11721975_s_at) / RFU GSTM3 (11746129_a_at) / Fold change /veh GSTM3 (11746129_a_at) / RFU IL23R (11737362_x_at) / Fold change /veh IL23R (11737362_x_at) / RFU TMEM51 (11727254_a_at) / Fold change /veh TMEM51 (11727254_a_at) / RFU PIWIL2 (11732686_x_at) / Fold change /veh PIWIL2 (11732686_x_at) / RFU ORM1 (11744905_x_at) / Fold change /veh ORM1 (11744905_x_at) / RFU CCDC152 (11743942_at) / Fold change /veh CCDC152 (11743942_at) / RFU ECM1 (11717891_a_at) / Fold change /veh ECM1 (11717891_a_at) / RFU IL23R (11748794_a_at) / Fold change /veh IL23R (11748794_a_at) / RFU TNFAIP8L3 (11732012_x_at) / Fold change /veh TNFAIP8L3 (11732012_x_at) / RFU MBOAT4 (11741988_at) / Fold change /veh MBOAT4 (11741988_at) / RFU 11764193_at / Fold change /veh 11764193_at / RFU TMEM53 (11763286_at) / Fold change /veh TMEM53 (11763286_at) / RFU MAGEB2 (11727129_at) / Fold change /veh MAGEB2 (11727129_at) / RFU TMEM200A (11744735_a_at) / Fold change /veh TMEM200A (11744735_a_at) / RFU CCDC152 (11751479_a_at) / Fold change /veh CCDC152 (11751479_a_at) / RFU FAM211A (11726209_a_at) / Fold change /veh FAM211A (11726209_a_at) / RFU RGS16 (11746705_a_at) / Fold change /veh RGS16 (11746705_a_at) / RFU VCAN (11755009_s_at) / Fold change /veh VCAN (11755009_s_at) / RFU RHOB (11743442_s_at) / Fold change /veh RHOB (11743442_s_at) / RFU RGS16 (11720943_a_at) / Fold change /veh RGS16 (11720943_a_at) / RFU RGS16 (11720944_at) / Fold change /veh RGS16 (11720944_at) / RFU, VPS4B / Fold change vs veh, VPS4B / RFU, CREB1 / Fold change vs veh, CREB1 / RFU, DNAJC13 / Fold change vs veh, DNAJC13 / RFU, GNAQ / Fold change vs veh, GNAQ / RFU, CDK5R1 / Fold change vs veh, CDK5R1 / RFU, ZRANB3 / Fold change vs veh, ZRANB3 / RFU, CUL4A / Fold change vs veh, CUL4A / RFU, CCNY / Fold change vs veh, CCNY / RFU, UFL1 / Fold change vs veh, UFL1 / RFU, COG3 / Fold change vs veh, COG3 / RFU, DIAPH2 / Fold change vs veh, DIAPH2 / RFU, SKA2 / Fold change vs veh, SKA2 / RFU, AFF3 / Fold change vs veh, AFF3 / RFU, LMF1 / Fold change vs veh, LMF1 / RFU, IPO11 / Fold change vs veh, IPO11 / RFU, DFFB / Fold change vs veh, DFFB / RFU, FOXP1 / Fold change vs veh, FOXP1 / RFU, CARD8 / Fold change vs veh, CARD8 / RFU, STRN3 / Fold change vs veh, STRN3 / RFU, ADK / Fold change vs veh, ADK / RFU, RASSF2 / Fold change vs veh, RASSF2 / RFU, WIPF1 / Fold change vs veh, WIPF1 / RFU, LARP1B / Fold change vs veh, LARP1B / RFU, RASA1 / Fold change vs veh, RASA1 / RFU, RB1 / Fold change vs veh, RB1 / RFU, PPFIA1 / Fold change vs veh, PPFIA1 / RFU, MAT2A / Fold change vs veh, MAT2A / RFU, CCT5 / Fold change vs veh, CCT5 / RFU, WDR92 / Fold change vs veh, WDR92 / RFU, CUX1 / Fold change vs veh, CUX1 / RFU, TTC7A / Fold change vs veh, TTC7A / RFU, TMEM135 / Fold change vs veh, TMEM135 / RFU, DEPTOR / Fold change vs veh, DEPTOR / RFU, CPM / Fold change vs veh, CPM / RFU, DNAJB6 / Fold change vs veh, DNAJB6 / RFU, CACNA2D3 / Fold change vs veh, CACNA2D3 / RFU, DTX4 / Fold change vs veh, DTX4 / RFU, TFCP2 / Fold change vs veh, TFCP2 / RFU, GMCL1 /// GMCL1P1 / Fold change vs veh, GMCL1 /// GMCL1P1 / RFU, AEBP2 / Fold change vs veh, AEBP2 / RFU, SNHG1 /// SNORD22 /// SNORD25 /// SNORD26 /// SNORD27 /// SNORD28 /// SNORD29 /// SNORD31 / Fold change vs veh, SNHG1 /// SNORD22 /// SNORD25 /// SNORD26 /// SNORD27 /// SNORD28 /// SNORD29 /// SNORD31 / Fold change (Aza/veh), C12orf56 (ProbeSet 11735607_a_at) / Fold change (ACY-1035/veh), C12orf56 (ProbeSet 11735607_a_at) / Fold change (Aza/veh), FGFR1OP (ProbeSet 11751329_s_at) / Fold change (ACY-1035/veh), FGFR1OP (ProbeSet 11751329_s_at) / Fold change (Aza/veh), VPS36 (ProbeSet 11739960_a_at) / Fold change (ACY-1035/veh), VPS36 (ProbeSet 11739960_a_at) / RFU SYPL1 (11715823_x_at) / Fold change /veh SYPL1 (11715823_x_at) / RFU IGFBP7 (11715501_s_at) / Fold change /veh IGFBP7 (11715501_s_at) / RFU REEP3 (11722064_at) / Fold change /veh REEP3 (11722064_at) / RFU IGLL1 (11728026_x_at) / Fold change /veh IGLL1 (11728026_x_at): dose or concentration left out as unconfirmed. The settings on record: ProbeSet 11746640_a_at; LIST D.

As for `Nc1ccc(-c2cccs2)cc1NC(=O)c1ccc2c(c1)cc(C1CC1)n2CCN1CCOCC1` [ACY-1035], the “RFU, RASSF2” value stood at 39.78 RFU.
